We go through 26 molecules from patent publication US10450270B2, “Glyoxamide substituted pyrrolamide derivatives and the use thereof as medicaments for the treatment of hepatitis B” (Janssen Sciences Ireland UC, priority 2013, dated 2019).

Series [1] is described as follows: Cytotoxicity in HepG2 cells, Resazurin viability assay. To be noted: human, HepG2 cells.
Another series deals with HBV. Kind of series: Anti-HBV activity, HepG2.117 inducible HBV producing cell line (Tet-off), intracellular HBV DNA by realtime PCR. It counts as cell-based. To be noted: Hepatitis B virus, 72 h; HepG2.117 cells, 3 days of treatment, intracellular HBV DNA; read-out: HepG2 117 EC50.

Bounds are passed on as bounds.

By CC50 is commonly meant the concentration that lowers cell viability or growth by half. Read a low CC50 as greater toxicity to the cells. For orientation: EC50 means the concentration giving half of the maximal effect. In series [1], `Cc1c(C(=O)C(=O)NC(C)C)cc(C(=O)Nc2ccc(F)c(C#N)c2)n1C` [Compound 52, N-(3-cyano-4-fluoro-phenyl)-4-[2-(isopropylamino)-2-oxo-acetyl]-1,5-dimethyl-pyrrole-2-carboxamide] returned a CC50 at 4 days greater than 25 µM. The EC50 with HBV amounted to 0.067 µM.

In the case of `Cc1c(C(=O)C(=O)NC2(C)CC(F)(F)C2)cc(C(=O)Nc2ccc(F)c(C#N)c2)n1C` [Compound 56, N-(3-cyano-4-fluoro-phenyl)-4-[2-[(3,3-difluoro-1-methyl-cyclobutyl)-amino]-2-oxo-acetyl]-1,5-dimethyl-pyrrole-2-carboxamide], in series [1], the CC50 at 4 days is greater than 25 µM. Also, the EC50 with HBV amounted to 0.005 µM.

Molecule `C[C@@H](NC(=O)C(=O)c1c(F)c(C(=O)Nc2ccc(F)c(C#N)c2)n(C)c1Cl)C(F)(F)F` [Compound 91, 5-chloro-N-(3-cyano-4-fluoro-phenyl)-3-fluoro-1-methyl-4-[2-oxo-2-[[(1R)-2,2,2-trifluoro-1-methyl-ethyl]amino]acetyl]pyrrole-2-carboxamide] had a CC50 at 4 days in series [1] greater than 25 µM. Also, the EC50 with HBV was found to be 0.3 µM.

In series [1], `Cn1cc(C(=O)C(=O)NC2(C)CC(F)(F)C2)c(F)c1C(=O)Nc1ccc(F)c(C#N)c1` [Compound 35, N-(3-cyano-4-fluoro-phenyl)-4-[2-[(3,3-difluoro-1-methyl-cyclobutyl)-amino]-2-oxo-acetyl]-3-fluoro-1-methyl-pyrrole-2-carboxamide] had a CC50 at 4 days greater than 25 µM. Further, the EC50 with HBV worked out at 0.004 µM.

Regarding `CCCC[C@H](CO)NC(=O)C(=O)c1cc(C(=O)Nc2ccc(F)c(C#N)c2)n(C)c1C` [Compound 75, N-(3-cyano-4-fluoro-phenyl)-4-[2-[[(1R)-1-(hydroxymethyl)pentyl]amino]-2-oxo-acetyl]-1,5-dimethyl-pyrrole-2-carboxamide], the CC50 at 4 days in series [1] was greater than 25 µM. Besides, the EC50 in the series with HBV was determined as 0.014 µM.

For `C[C@H](NC(=O)C(=O)c1cc(C(=O)Nc2ccc(F)c(C#N)c2)n(C)c1)C(F)(F)F` [Compound 51, N-(3-cyano-4-fluoro-phenyl)-1-methyl-4-[2-oxo-2-[[(1S)-2,2,2-trifluoro-1-methyl-ethyl]amino]acetyl]pyrrole-2-carboxamide], the CC50 at 4 days in series [1] was greater than 25 µM. For the same molecule, in the series with HBV, the concentration giving a half-maximal response (EC50) was 0.042 µM.

On to `Cc1c(C(=O)C(=O)N[C@H]2CCN(C)C[C@H]2O)cc(C(=O)Nc2ccc(F)c(C#N)c2)n1C` [Compound 62, N-(3-cyano-4-fluoro-phenyl)-4-[2-[[(3R,4S)-3-hydroxy-1-methyl-4-piperidyl]amino]-2-oxo-acetyl]-1,5-dimethyl-pyrrole-2-carboxamide], for which the CC50 at 4 days in series [1] is greater than 25 µM. The EC50 in the series with HBV was 0.23 µM.

On to `Cc1c(C(=O)C(=O)NC2(C(F)(F)F)CCC(O)CC2)cc(C(=O)Nc2ccc(F)c(C#N)c2)n1C` (stereo not shown) [Compound 82, N-(3-cyano-4-fluoro-phenyl)-4-[2-[[4-hydroxy-1-(trifluoromethyl)cyclo-hexyl]amino]-2-oxo-acetyl]-1,5-dimethyl-pyrrole-2-carboxamide], for which, in series [1], the CC50 at 4 days is greater than 25 µM. The EC50 in the series with HBV was found to be 0.003 µM.

`Cn1c(Cl)c(C(=O)C(=O)NC2(C(F)(F)F)CCC2)c(F)c1C(=O)Nc1ccc(F)c(C#N)c1` [Compound 90, 5-chloro-N-(3-cyano-4-fluoro-phenyl)-3-fluoro-1-methyl-4-[2-oxo-2-[[1-(trifluoromethyl)cyclobutyl]amino]acetyl]pyrrole-2-carboxamide] showed a CC50 at 4 days in series [1] greater than 25 µM. The EC50 with HBV worked out at 0.032 µM.

Take `Cc1c(C(=O)C(=O)N[C@H]2[C@H](C)CC[C@H]2O)cc(C(=O)Nc2ccc(F)c(C#N)c2)n1C` [Compound 66, N-(3-cyano-4-fluoro-phenyl)-4-[2-[[(1S,2R,5R)-2-hydroxy-5-methyl-cyclopentyl]amino]-2-oxo-acetyl]-1,5-dimethyl-pyrrole-2-carboxamide]: in series [1], the CC50 at 4 days is greater than 25 µM. Also, in the series with HBV, the EC50 was 0.11 µM.

In series [1], `Cc1c(C(=O)C(=O)NC2(C)COC2)c(Cl)c(C(=O)Nc2ccc(F)c(C#N)c2)n1C` [Compound 44, 3-chloro-N-(3-cyano-4-fluoro-phenyl)-1,5-dimethyl-4-[2-[(3-methyloxetan-3-yl)amino]-2-oxo-acetyl]pyrrole-2-carboxamide] registered a CC50 at 4 days greater than 25 µM. For the same molecule, the EC50 with HBV came to 0.003 µM.

The molecule `Cc1c(C(=O)C(=O)NC2(CO)CC2)cc(C(=O)Nc2ccc(F)c(C#N)c2)n1C` [Compound 73, N-(3-cyano-4-fluoro-phenyl)-4-[2-[[1-(hydroxymethyl)cyclopropyl]amino]-2-oxo-acetyl]-1,5-dimethyl-pyrrole-2-carboxamide] came in with a CC50 at 4 days in series [1] greater than 25 µM. Further, the EC50 in the series with HBV worked out at 0.017 µM.

In series [1], `Cc1c(C(=O)C(=O)NC(C)(C)C(F)(F)F)cc(C(=O)Nc2ccc(F)c(C#N)c2)n1C` [Compound 58, N-(3-cyano-4-fluoro-phenyl)-1,5-dimethyl-4-[2-oxo-2-[(2,2,2-trifluoro-1,1-dimethyl-ethyl)amino]acetyl]pyrrole-2-carboxamide] registered a CC50 at 4 days greater than 25 µM. In addition, the EC50 in the series with HBV came out at 0.006 µM.

The molecule `C[C@@H](NC(=O)C(=O)c1cn(C)c(C(=O)Nc2ccc(F)c(C#N)c2)c1Br)C(F)(F)F` [Compound 26, 3-bromo-N-(3-cyano-4-fluoro-phenyl)-1-methyl-4-[2-oxo-2-[[(1R)-2,2,2-trifluoro-1-methyl-ethyl]amino]acetyl]pyrrole-2-carboxamide] gave a 50% cytotoxic concentration (CC50) at 4 days in series [1] greater than 25 µM. Further, the EC50 in the series with HBV was found to be 0.07 µM.

As for `Cc1c(C(=O)C(=O)NC(C)C(C)(C)O)cc(C(=O)Nc2ccc(F)c(C#N)c2)n1C` (stereo not shown) [Compound 72, N-(3-cyano-4-fluoro-phenyl)-4-[2-[(2-hydroxy-1,2-dimethyl-propyl)amino]-2-oxo-acetyl]-1,5-dimethyl-pyrrole-2-carboxamide], in series [1], the CC50 at 4 days is greater than 25 µM. Further, the EC50 with HBV is 0.018 µM.

For `Cc1c(C(=O)C(=O)NC(C)C)c(Cl)c(C(=O)Nc2ccc(F)c(C#N)c2)n1C` [Compound 45, 3-chloro-N-(3-cyano-4-fluoro-phenyl)-4-[2-(isopropylamino)-2-oxo-acetyl]-1,5-dimethyl-pyrrole-2-carboxamide], the CC50 at 4 days in series [1] was greater than 25 µM. In the series with HBV, the EC50 was 0.006 µM.

Turning to `CCCC[C@@H](CO)NC(=O)C(=O)c1cc(C(=O)Nc2ccc(F)c(C#N)c2)n(C)c1C` [Compound 63, N-(3-cyano-4-fluoro-phenyl)-4-[2-[[(1S)-1-(hydroxymethyl)pentyl]amino]-2-oxo-acetyl]-1,5-dimethyl-pyrrole-2-carboxamide], in series [1], the CC50 at 4 days is greater than 25 µM. In the series with HBV, the EC50 was determined as 0.21 µM.

Take `Cc1c(C(=O)C(=O)NC2(CO)COC2)cc(C(=O)Nc2ccc(F)c(C#N)c2)n1C` [Compound 71, N-(3-cyano-4-fluoro-phenyl)-4-[2-[[3-(hydroxymethyl)oxetan-3-yl]amino]-2-oxo-acetyl]-1,5-dimethyl-pyrrole-2-carboxamide]: in series [1], the CC50 at 4 days was greater than 25 µM. Further, the EC50 in the series with HBV was found to be 0.024 µM.

As for `C[C@H](CO)NC(=O)C(=O)c1cn(C)c(C(=O)Nc2ccc(F)c(C#N)c2)c1F` [Compound 95, N-(3-cyano-4-fluoro-phenyl)-3-fluoro-4-[2-[[(1R)-2-hydroxy-1-methyl-ethyl]amino]-2-oxo-acetyl]-1-methyl-pyrrole-2-carboxamide], the CC50 at 4 days in series [1] is greater than 25 µM. Besides, in the series on HBV, the EC50 amounted to 0.065 µM.

Consider `Cn1c(C#N)c(C(=O)C(=O)NC(C)(C)C)c(Cl)c1C(=O)Nc1ccc(F)c(C#N)c1` [Compound 49, 4-[2-(tert-butylamino)-2-oxo-acetyl]-3-chloro-5-cyano-N-(3-cyano-4-fluoro-phenyl)-1-methyl-pyrrole-2-carboxamide], for which, in series [1], the CC50 at 4 days is greater than 25 µM. The EC50 with HBV came out at 0.034 µM.

Molecule `Cc1c(C(=O)C(=O)N[C@H](CO)C(C)C)cc(C(=O)Nc2ccc(F)c(C#N)c2)n1C` [Compound 68, N-(3-cyano-4-fluoro-phenyl)-4-[2-[[(1S)-1-(hydroxymethyl)-2-methyl-propyl]amino]-2-oxo-acetyl]-1,5-dimethyl-pyrrole-2-carboxamide] had a CC50 at 4 days in series [1] greater than 25 µM. Further, the EC50 in the series with HBV worked out at 0.078 µM.

`Cn1c(Br)c(C(=O)C(=O)NC(C)(C)C)c(Cl)c1C(=O)Nc1ccc(F)c(C#N)c1` [Compound 50, 5-bromo-4-[2-(tert-butylamino)-2-oxo-acetyl]-3-chloro-N-(3-cyano-4-fluoro-phenyl)-1-methyl-pyrrole-2-carboxamide] returned a CC50 at 4 days in series [1] greater than 25 µM. The EC50 in the series on HBV turned out to be 0.004 µM.

Consider `C[C@@H](NC(=O)C(=O)c1cn(C)c(C(=O)Nc2ccc(F)c(C#N)c2)c1F)C(C)(F)F` [Compound 93, N-(3-cyano-4-fluoro-phenyl)-4-[2-[[(1R)-2,2-difluoro-1-methylpropyl]-amino]-2-oxo-acetyl]-3-fluoro-1-methyl-pyrrole-2-carboxamide], for which, in series [1], the CC50 at 4 days was greater than 25 µM. Further, the EC50 in the series on HBV came out at 0.015 µM.

In the case of `C[C@@H](NC(=O)C(=O)c1cc(C(=O)Nc2ccc(F)c(C#N)c2)n(C)c1C1CC1)C(F)(F)F` [Compound 61, N-(3-cyano-4-fluoro-phenyl)-5-cyclopropyl-1-methyl-4-[2-oxo-2-[[(1R)-2,2,2-trifluoro-1-methyl-ethyl]amino]acetyl]pyrrole-2-carboxamide], the CC50 at 4 days in series [1] was greater than 25 µM. For the same molecule, the EC50 in the series with HBV amounted to 0.12 µM.

On to `C[C@@H](NC(=O)C(=O)c1cc(C(=O)Nc2ccc(F)c(C#N)c2)n(C)c1Br)C(F)(F)F` [Compound 25, 5-bromo-N-(3-cyano-4-fluoro-phenyl)-1-methyl-4-[2-oxo-2-[[(1R)-2,2,2-trifluoro-1-methyl-ethyl]amino]acetyl]pyrrole-2-carboxamide], for which the CC50 at 4 days in series [1] was greater than 25 µM. Besides, the EC50 in the series on HBV was greater than 1 µM.

Molecule `Cc1c(C(=O)C(=O)NC(C)(C)C)cc(C(=O)Nc2ccc(F)c(C#N)c2)n1C` [Compound 59, 4-[2-(tert-butylamino)-2-oxo-acetyl]-N-(3-cyano-4-fluoro-phenyl)-1,5-dimethyl-pyrrole-2-carboxamide] had a CC50 at 4 days in series [1] greater than 25 µM. The EC50 with HBV amounted to 0.004 µM.
